Measured values taken from article PMC6934184, “Selective DNA-PKcs inhibition extends the therapeutic index of localized radiotherapy and chemotherapy” (The Journal of Clinical Investigation, 2019).

Biological target: T1, TAOK3 (JIK) (Homo sapiens, UniProt Q9H2K8)
T1 construct: purchased Thermo Fisher Scientific (Life Technologies) SelectScreen
Test: SelectScreen LanthaScreen
Type: binding
Settings: read-out: % displacement
Method in brief: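 NU5455 was profiled across the SelectScreen Broad panel of kinase activity and binding assays. Z'LYTE reactions such as CSF1R ran at apparent Km ATP, while the Adapta CAMK1 assay used ATP listed as 10. Values are given as percent.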

T1 sequence (Q9H2K8 whole entry): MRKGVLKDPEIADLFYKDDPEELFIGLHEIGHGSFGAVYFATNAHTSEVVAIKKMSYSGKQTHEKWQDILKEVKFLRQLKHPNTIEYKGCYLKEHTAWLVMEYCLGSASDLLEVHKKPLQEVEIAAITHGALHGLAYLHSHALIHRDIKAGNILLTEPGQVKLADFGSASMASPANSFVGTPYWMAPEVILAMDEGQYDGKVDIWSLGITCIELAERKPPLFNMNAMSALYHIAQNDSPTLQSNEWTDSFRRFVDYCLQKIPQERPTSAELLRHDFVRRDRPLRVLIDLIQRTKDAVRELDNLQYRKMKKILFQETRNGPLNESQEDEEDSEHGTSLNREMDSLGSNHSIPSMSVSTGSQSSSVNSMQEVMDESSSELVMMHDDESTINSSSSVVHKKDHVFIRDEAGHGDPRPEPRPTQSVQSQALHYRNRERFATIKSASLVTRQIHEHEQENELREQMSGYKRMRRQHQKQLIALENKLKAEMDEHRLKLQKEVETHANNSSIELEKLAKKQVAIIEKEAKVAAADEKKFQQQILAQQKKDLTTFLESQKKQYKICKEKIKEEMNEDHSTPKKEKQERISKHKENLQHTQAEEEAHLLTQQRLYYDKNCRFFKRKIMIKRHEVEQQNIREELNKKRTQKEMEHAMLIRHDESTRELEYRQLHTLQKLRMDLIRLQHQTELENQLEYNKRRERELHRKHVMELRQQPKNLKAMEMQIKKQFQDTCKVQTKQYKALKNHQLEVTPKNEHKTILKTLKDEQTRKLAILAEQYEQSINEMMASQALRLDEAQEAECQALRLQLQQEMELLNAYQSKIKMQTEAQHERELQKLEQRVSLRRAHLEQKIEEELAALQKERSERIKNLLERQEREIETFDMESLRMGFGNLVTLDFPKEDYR

CN(C(=O)CN1CCOCC1)c1ccc2sc3c(-c4cccc5c(=O)cc(N6CC7CCC(C6)O7)oc45)cccc3c2c1 [NU5455]
inhibition at 1 µM: 4.2%
